The supplement of paper PMC10307832

Experiments:
Assay in all cases: relative viability (nuclei count vs DMSO), 5 days (fraction); higher = more cells survive
QS11 + Phenformin = compound: C1CC2=C(C1)C=C(C=C2)OC3=NC(=C4C(=N3)N(C=N4)CC5=CC=C(C=C5)C6=CC=CC=C6)N[C@@H](CC7=CC=CC=C7)CO [QS11] + N=C(N)NC(=N)NCCc1ccccc1 [Phenformin] (partner 250 µM)
Outline: (§1)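 Relative viability equals treated-well nuclei counts divided by vehicle-well nuclei counts. Counts came from 4× images of lung cancer cell lines grown in 1536-well plates for 5 days after pin-tool dosing on the day after seeding. Dosing used one drug alone or a fixed anchor-drug dose plus five library-drug doses (not always all listed) in √10 steps, and values are medians of duplicate plates.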

QS11 + Decitabine = compound: C1CC2=C(C1)C=C(C=C2)OC3=NC(=C4C(=N3)N(C=N4)CC5=CC=C(C=C5)C6=CC=CC=C6)N[C@@H](CC7=CC=CC=C7)CO [QS11] + Nc1ncn([C@H]2C[C@H](O)[C@@H](CO)O2)c(=O)n1 [Decitabine] (partner 2 µM)
Outline: as §1

AZ628 + Alpelisib = compound: CC1=C(C=C(C=C1)NC(=O)C2=CC(=CC=C2)C(C)(C)C#N)NC3=CC4=C(C=C3)N=CN(C4=O)C [AZ628] + Cc1nc(NC(=O)N2CCC[C@H]2C(N)=O)sc1-c1ccnc(C(C)(C)C(F)(F)F)c1 [Alpelisib] (partner 2 µM)
Outline: as §1

Darinaparsin + Lapatinib = compound: C[As](C)SC[C@H](NC(=O)CC[C@H](N)C(=O)O)C(=O)NCC(=O)O [Darinaparsin] + CS(=O)(=O)CCNCc1ccc(-c2ccc3ncnc(Nc4ccc(OCc5cccc(F)c5)c(Cl)c4)c3c2)o1 [Lapatinib] (partner 2 µM)
Outline: as §1

| Cell Line | relative viability (QS11 + Phenformin; first compound 0.08 µM) | relative viability (QS11 + Phenformin; first compound 0.253 µM) | relative viability (QS11 + Phenformin; first compound 0.8 µM) | relative viability (QS11 + Phenformin; first compound 2.53 µM) | relative viability (QS11 + Phenformin; first compound 8 µM) | relative viability (QS11 + Decitabine; first compound 0.08 µM) | relative viability (QS11 + Decitabine; first compound 0.253 µM) | relative viability (QS11 + Decitabine; first compound 0.8 µM) | relative viability (QS11 + Decitabine; first compound 2.53 µM) | relative viability (QS11 + Decitabine; first compound 8 µM) | relative viability (AZ628 + Alpelisib; first compound 0.08 µM) | relative viability (AZ628 + Alpelisib; first compound 0.253 µM) | relative viability (AZ628 + Alpelisib; first compound 0.8 µM) | relative viability (AZ628 + Alpelisib; first compound 2.53 µM) | relative viability (AZ628 + Alpelisib; first compound 8 µM) | relative viability (Darinaparsin + Lapatinib; first compound 0.08 µM) | relative viability (Darinaparsin + Lapatinib; first compound 0.8 µM) | relative viability (Darinaparsin + Lapatinib; first compound 2.53 µM) | relative viability (Darinaparsin + Lapatinib; first compound 8 µM) |
| --- | --- | --- | --- | --- | --- | --- | --- | --- | --- | --- | --- | --- | --- | --- | --- | --- | --- | --- | --- |
| PC-14 | 0.384 | 0.49 | 0.574 | 0.683 | 0.737 | 0.244 | 0.196 | 0.199 | 0.22 | 0.195 | 1 | 0.854 | 0.923 | 1.01 | 0.751 | 0.333 | 0.294 | 0.32 | 0.372 |
| EPLC-272H |  | 0.327 | 0.312 | 0.287 | 0.304 |  | 0.382 | 0.388 | 0.385 | 0.341 | 0.951 | 0.85 | 0.892 | 0.908 | 0.641 | 1.02 | 0.935 | 0.923 | 0.93 |
| NCI-H2228 | 0.259 | 0.325 | 0.407 | 0.479 | 0.452 |  |  |  |  |  | 0.697 | 0.984 | 0.656 | 0.888 | 0.351 | 1.46 | 0.869 | 0.685 | 1.22 |
| LC-2-ad | 0.535 | 0.482 | 0.535 | 0.551 | 0.599 | 0.776 | 0.775 | 0.691 | 0.722 | 0.712 | 0.968 | 0.865 | 0.982 | 0.851 | 0.466 | 1.14 | 0.863 | 0.892 | 1.08 |
| HOP-62 | 0.677 | 0.743 | 0.657 | 0.497 | 0.669 | 0.244 | 0.241 | 0.189 | 0.208 | 0.233 | 1.02 | 1.11 | 0.947 | 1.24 | 0.451 | 1.12 | 1.01 | 0.97 | 1.29 |
| UMC-11 | 0.325 | 0.287 | 0.302 | 0.324 | 0.24 | 0.318 | 0.482 | 0.604 | 0.543 | 0.651 | 1 | 0.987 | 0.949 | 1.13 | 1.1 | 1.22 | 0.977 | 0.928 | 1.05 |
| Calu-6 |  |  |  |  |  |  |  |  |  |  | 0.937 | 0.835 | 0.416 | 0.541 | 0.171 | 1.45 | 1.14 | 1.09 | 1.06 |
| HCC-44 | 0.208 | 0.206 | 0.25 | 0.158 | 0.157 | 1.08 | 0.936 | 0.572 | 0.922 | 0.916 | 0.754 | 0.796 | 0.801 | 0.68 | 0.705 | 1.24 | 1.04 | 0.903 | 1.08 |
| NCI-H727 | 0.88 | 0.442 | 0.459 | 0.557 | 0.372 | 0.767 | 0.855 | 0.762 | 0.899 | 0.61 | 0.499 | 0.308 | 0.301 | 0.318 | 0.23 | 0.872 | 0.545 | 0.79 | 0.967 |
| A-427 | 0.286 | 0.358 |  | 0.34 | 0.363 | 0.523 | 0.561 |  | 0.613 | 0.674 | 1.02 | 1.06 | 0.624 | 0.635 | 0.222 | 1.08 | 1.06 | 1.04 | 1.22 |
| SK-MES-1 | 0.764 | 0.678 | 0.663 | 0.712 | 0.711 | 0.361 | 0.444 | 0.339 | 0.447 | 0.351 | 0.821 | 0.956 | 0.823 | 0.779 | 0.674 | 0.539 | 0.444 | 0.439 | 0.519 |
| NCI-H1623 | 0.497 | 0.576 | 0.489 | 0.548 | 0.602 |  |  |  |  |  |  |  |  |  |  |  |  |  |  |
| HCC-827 | 0.447 | 0.416 | 0.366 | 0.478 | 0.547 | 0.343 | 0.33 | 0.308 | 0.336 | 0.337 | 0.903 | 0.9 | 0.889 | 0.984 | 0.555 | 0.198 | 0.184 | 0.153 | 0.176 |
| EKVX | 0.228 | 0.224 |  | 0.228 | 0.255 | 0.321 | 0.44 | 0.327 | 0.392 | 0.341 | 0.909 | 0.903 | 0.949 | 0.983 | 0.866 | 0.188 | 0.165 | 0.234 | 0.216 |
| SW 900 | 0.54 | 0.578 | 0.709 | 0.417 | 0.402 | 0.37 | 0.475 | 0.413 | 0.491 | 0.412 |  |  |  |  |  |  |  |  |  |
| NCI-H661 | 0.221 | 0.297 | 0.273 | 0.297 | 0.261 | 0.511 | 0.585 | 0.474 | 0.554 | 0.46 | 0.647 | 0.401 | 0.497 | 0.598 | 0.363 | 0.509 | 0.584 | 0.513 | 0.511 |
| NCI-H1975 | 0.419 | 0.406 | 0.429 | 0.493 | 0.515 | 0.369 | 0.358 | 0.397 | 0.376 | 0.358 | 0.603 | 0.701 | 0.594 | 0.66 | 0.328 | 0.998 | 0.895 | 0.66 | 1.25 |
| NCI-H1944 | 0.202 | 0.204 |  | 0.196 | 0.145 | 0.393 | 0.421 |  | 0.419 | 0.366 | 0.855 | 0.718 | 0.673 | 0.68 | 0.586 | 0.834 | 0.796 | 0.664 | 0.947 |
| SK-LU-1 | 0.527 | 0.557 | 0.587 | 0.404 | 0.456 | 0.586 | 0.59 | 0.595 | 0.6 | 0.57 | 0.733 | 1.12 | 0.802 | 0.934 | 0.512 | 1.08 | 0.802 | 0.574 | 0.932 |
